Values of other authors in US20140010903A1, “Curcuminoid composition with enhanced bioavailability and a process for its preparation” (Akay Flavours & Aromatics Pvt Ltd., priority 2012, published 2014).

SMILES: O=C(/C=C/C=C/c1ccc2c(c1)OCO2)N1CCCCC1 [piperine]
- Toxicity in animal studies: toxic
